For one assay, the target named is CDK12/CycK (Homo sapiens, UniProt Q9NYV4). Kind of assay: CDK12/CycK high ATP kinase assay (TR-FRET, 2 mM ATP). Format: biochemical. Particulars: 2 mM ATP (high ATP); median; read-out: CDK12/CyclinK, 2 mM ATP (high ATP), IC50-[mol/l] (median). How it is done: In the context of the present invention, the term “IC50 CDK12 hATP” refers to the IC50 values obtained according to the assay described in this section (2.2) herein below, i.e. the IC50 values for the inhibition of CDK12 at high (2 mM) ATP.
Sequence of CDK12/CycK (Q9NYV4 with tags, fused parts or gaps): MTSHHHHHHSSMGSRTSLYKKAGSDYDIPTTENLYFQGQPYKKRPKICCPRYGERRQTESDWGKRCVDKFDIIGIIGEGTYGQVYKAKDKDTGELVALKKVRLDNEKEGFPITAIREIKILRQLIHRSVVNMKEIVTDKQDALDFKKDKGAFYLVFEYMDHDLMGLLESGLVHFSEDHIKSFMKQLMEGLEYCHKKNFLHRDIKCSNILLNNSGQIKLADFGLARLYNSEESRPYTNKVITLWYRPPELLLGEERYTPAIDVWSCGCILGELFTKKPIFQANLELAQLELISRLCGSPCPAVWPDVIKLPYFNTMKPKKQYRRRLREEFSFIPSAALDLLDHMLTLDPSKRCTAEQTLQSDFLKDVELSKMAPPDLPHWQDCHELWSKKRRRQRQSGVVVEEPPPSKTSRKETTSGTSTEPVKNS
Sequence of CDK12/CycK (O75909 1-300 partner limits assumed): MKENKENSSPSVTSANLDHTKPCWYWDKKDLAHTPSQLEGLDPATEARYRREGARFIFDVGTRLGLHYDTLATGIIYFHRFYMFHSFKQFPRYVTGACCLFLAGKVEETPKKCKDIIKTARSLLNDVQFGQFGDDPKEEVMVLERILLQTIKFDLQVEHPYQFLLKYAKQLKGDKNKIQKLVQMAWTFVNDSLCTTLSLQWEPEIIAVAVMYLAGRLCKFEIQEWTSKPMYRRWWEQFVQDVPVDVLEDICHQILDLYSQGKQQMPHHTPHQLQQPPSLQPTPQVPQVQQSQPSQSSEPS
CDK12/CycK-inhibitory activity of compounds of the present invention at 2 millimol/L adenosine-tri-phosphate (ATP) was quantified employing the TR-FRET (TR-FRET=Time Resolved Fluorescence Energy Transfer) based CDK12/CycK activity inhibition assay as described in the following paragraphs.
A complex of human recombinant CDK12 and human recombinant CycK (both N-terminally His-tagged, expression and purification as described above) was used as enzyme. As substrate for the kinase reaction biotinylated peptide biotin-Ahx-KFELLPTPPLSPSRRSGL (C-terminus in amid form) was used which can be purchased e.g. form the company Biosyntan (Berlin-Buch, Germany).
For the assay 50 nanoL of a 100 fold concentrated solution of the test compound in DMSO was pipetted into either a black low volume 384 well microtiter plate or a black 1536 well microtiter plate (both Greiner Bio-One, Frickenhausen, Germany), 2 microL of a solution of CDK12/CycK in aqueous assay buffer [25 millimol/L HEPES pH 7.5, 20 millimol/L MgCl2, 5 millimol/L β-glycerophosphate, 2 millimol/L EGTA, 1.0 millimol/L dithiothreitol, 0.01% (v/v) Nonidet-P40 (Sigma), 0.01% (w/v) bovine serum albumin] were added and the mixture was incubated for 15 min at 22° C. to allow pre-binding of the test compounds to the enzyme before the start of the kinase reaction. Then the kinase reaction was started by the addition of 3 microL of a solution ATP (3.33 millimol/L=>final conc. in the 5 microL assay volume is 2 millimol/L) and substrate (1.67 micromol/L=>final conc. in the 5 microL assay volume is 1 micromol/L) in assay buffer and the resulting mixture was incubated for a reaction time of 60 min at 22° C. The concentration of CDK12/CycK was adjusted depending of the activity of the enzyme lot and was chosen appropriate to have the assay in the linear range, typical concentrations were about 0.75 nanomol/L. The reaction was stopped by the addition of 3 microL of a solution of TR-FRET detection reagents (125 nanomol/L streptavidine-XL665 [Cisbio Bioassays, Codolet, France] and 0.67 nanomol/L anti-Phospho-c-Myc (Ser 62) (E1J4K)-antibody from Cell Signalling [#13748] and 2 nanomol/L LANCE EU-W1024 labeled anti-rabbit IgG antibody [Perkin-Elmer, product no. 0083]) in an aqueous EDTA-solution (133 millimol/L EDTA, 0.27% (w/v) bovine serum albumin in 66.7 millimol/L HEPES pH 7.5).
The resulting mixture was incubated 1 h at 22° C. to allow the formation of complex between the phosphorylated biotinylated peptide and the detection reagents. Subsequently the amount of phosphorylated substrate was evaluated by measurement of the resonance energy transfer from the Eu-chelate to the streptavidine-XL. Therefore, the fluorescence emissions at 620 nm and 665 nm after excitation at 350 nm was measured in a TR-FRET reader, e.g. a Pherastar FS (BMG Labtechnologies, Offenburg, Germany) or a Viewlux (Perkin-Elmer). The ratio of the emissions at 665 nm and at […] was taken as the measure for the amount of phosphorylated substrate. The data were normalised (enzyme reaction without inhibitor=0% inhibition, all other assay components but no enzyme=100% inhibition).
On the technique in general: TR-FRET usually uses a lanthanide donor and a delayed reading to cut background.

The subject of assay [1] is CAL-120, human breast adenocarcinoma cells. Kind of assay: Proliferation assay CAL-120 (crystal violet, 4 days). Format: cell-based. Particulars: Homo sapiens, CAL-120, 96 h, CAL-120 cells, median, read-out: Prolif-CAL-120, IC50-[mol/l] (median). The method, then:
Human tumour cells were originally obtained from the American Type Culture Collection (ATCC), or from the Deutsche Sammlung von Mikroorganismen und Zellkulturen (DSMZ, German Collection of Microorganisms and Cell Cultures). Cultivated tumour cells (CAL-120, human breast adenocarcinoma cells, DSMZ ACC-459; MDA-MB-231, human breast cancer cells, ATCC HTB-26) were plated at a density of 4,000 cells/well in a 96-well multititer plate in 200 microL of their respective growth medium supplemented 10% fetal calf serum. After 24 hours, the cells of one plate (zero-point plate) were stained with crystal violet (see below), while the medium of the other plates was supplemented with the test substances in various concentrations (0 micromol/L, as well as in the range of 0.01-10 micromol/L; the final concentration of the solvent dimethyl sulfoxide was adjusted to 0.1%) using a Tecan HP D300 Digital Dispenser. The cells were incubated for 4 days in the presence of test substances. Cell proliferation was determined by staining the cells with crystal violet: the cells were fixed by adding 20 microL/measuring point of an 11% glutaric aldehyde solution for 15 minutes at room temperature. After three washing cycles of the fixed cells with water, the plates were dried at room temperature. The cells were stained by adding 100 microL/measuring point of a 0.1% crystal violet solution (pH 3.0). After three washing cycles of the stained cells with water, the plates were dried at room temperature. The dye was dissolved by adding 100 microL/measuring point of a 10% acetic acid solution. The extinction was determined by photometry at a wavelength of 595 nm. The change of cell number, in percent, was calculated by normalization of the measured values to the extinction values of the zero-point plate (=0%) and the extinction of the untreated (0 μM) cells (=100%). The IC50 values (inhibitory concentration at 50% of maximal effect) were determined by means of a 4 parameter fit.

Molecules are shown by their SMILES.

In the case of `Clc1ccccc1-c1cnc(CNc2nc(N3CCOCC3)nc3c(Br)cnn23)[nH]1` [Example 96, 8-bromo-N-{[5-(2-chlorophenyl)-1H-imidazol-2-yl]methyl}-2-(morpholin-4-yl)pyrazolo[1,5-a][1,3,5]triazin-4-amine], the IC50 at CDK12/CycK was 4.65 µM; in assay [1] it was 0.0301 µM. In the same order, the values of `C[C@@H]1CN(c2nc(NCc3nc4ccccc4[nH]3)n3ncc(Br)c3n2)C[C@H](C)N1` [Example 142, N-(1H-benzimidazol-2-ylmethyl)-8-bromo-2-[(3R,5S)-3,5-dimethylpiperazin-1-yl]pyrazolo[1,5-a][1,3,5]triazin-4-amine] are 10.8 µM and 0.0113 µM.

With `Cc1ccc2[nH]c(CNc3nc(N4CCN(C)CC4)nc4c(Br)cnn34)nc2c1` [Example 158, 8-bromo-N-[(5-methyl-1H-benzimidazol-2-yl)methyl]-2-(4-methylpiperazin-1-yl)pyrazolo[1,5-a][1,3,5]triazin-4-amine], the figures for the IC50 (at CDK12/CycK; in assay [1]) were 4.46 µM and 0.00117 µM, respectively. As to `CN1CCN(c2nc(NCc3nc4ccccc4[nH]3)n3ncc(Br)c3n2)C(CO)C1` (centres unmarked) [Example 155, [1-[4-(1H-benzimidazol-2-ylmethylamino)-8-bromo-pyrazolo[1,5-a][1,3,5]triazin-2-yl]-4-methyl-piperazin-2-yl]methanol], the IC50 on CDK12/CycK was found to be 3.74 µM; in assay [1], 0.0753 µM. The matching figures for `CN1CCN(c2nc(NCc3nc4c(F)c(F)ccc4[nH]3)n3ncc(Br)c3n2)CC1` [Example 133, 8-bromo-N-[(4,5-difluoro-1H-benzimidazol-2-yl)methyl]-2-(4-methylpiperazin-1-yl)pyrazolo[1,5-a][1,3,5]triazin-4-amine]: 7.01 µM and 0.00441 µM. In the same order, the values of `FC(F)(F)CN1CCN(c2nc(NCc3nc4ccccc4[nH]3)n3ncc(Br)c3n2)CC1` [Example 139, N-[(1H-benzimidazol-2-yl)methyl]-8-bromo-2-[4-(2,2,2-trifluoroethyl)piperazin-1-yl]pyrazolo[1,5-a][1,3,5]triazin-4-amine] are 15.3 µM and 0.446 µM. In the same order, the values of `Fc1cc(-c2nnc(CNc3nc(N4CCOCC4)nc4c(Br)cnn34)[nH]2)cc(F)c1F` [Example 100, 8-bromo-2-(morpholin-4-yl)-N-{[5-(3,4,5-trifluorophenyl)-4H-1,2,4-triazol-3-yl]methyl}pyrazolo[1,5-a][1,3,5]triazin-4-amine] are 1.24 µM and 0.0602 µM. As to `Fc1cccc(-c2nnc(CNc3nc(N4C[C@H]5C[C@@H]4CO5)nc4c(Br)cnn34)[nH]2)c1` [Example 153, 8-bromo-N-{[5-(3-fluorophenyl)-4H-1,2,4-triazol-3-yl]methyl}-2-[(1R,4R)-2-oxa-5-azabicyclo[2.2.1]heptan-5-yl]pyrazolo[1,5-a][1,3,5]triazin-4-amine], the results for the IC50 (on CDK12/CycK; in assay [1]) were 2.95 µM and 0.00578 µM, respectively. Turning to `NCCc1cccc2[nH]c(CNc3nc(N4CCOCC4)nc4c(Br)cnn34)nc12` [Example 112, N-{[7-(2-aminoethyl)-1H-benzimidazol-2-yl]methyl}-8-bromo-2-(morpholin-4-yl)pyrazolo[1,5-a][1,3,5]triazin-4-amine], the IC50 at CDK12/CycK was determined as 6.68 µM. The same measure, in the same setting: to `NCCCc1cccc2[nH]c(CNc3nc(N4CCOCC4)nc4c(Br)cnn34)nc12.O=CO` [Example 114, formic acid-N-{[4-(3-aminopropyl)-1H-benzimidazol-2-yl]methyl}-8-bromo-2-(morpholin-4-yl)pyrazolo[1,5-a][1,3,5]triazin-4-amine (1/1)] belongs 8.13 µM; to `CC(C)c1cnn2c(NCc3nc4ccccc4[nH]3)nc(N3CCOC[C@H]3C)nc12` [Example 7, N-[(1H-benzimidazol-2-yl)methyl]-2-[(3R)-3-methylmorpholin-4-yl]-8-(propan-2-yl)pyrazolo[1,5-a][1,3,5]triazin-4-amine], 10.2 µM. With `CC(=O)NCCCc1cccc2[nH]c(CNc3nc(N4CCOCC4)nc4c(Br)cnn34)nc12.O=CO` [Example 115, formic acid-N-{3-[2-({[8-bromo-2-(morpholin-4-yl)pyrazolo[1,5-a][1,3,5]triazin-4-yl]amino}methyl)-1H-benzimidazol-4-yl]propyl}acetamide (1/1)], the IC50 on CDK12/CycK came out at 11.6 µM. For the compound `CC(C)c1cnn2c(NCc3nc4ccccc4[nH]3)nc(NCC(C)(C)O)nc12` [Example 10, 1-{[4-{[(1H-benzimidazol-2-yl)methyl]amino}-8-(propan-2-yl)pyrazolo[1,5-a][1,3,5]triazin-2-yl]amino}-2-methylpropan-2-ol], the IC50 at CDK12/CycK is 8.75 µM.

For `CC(C)c1cnn2c(NCc3nc4ccccc4[nH]3)nc(N3CC4(COC4)C3)nc12` [Example 9, N-[(1H-benzimidazol-2-yl)methyl]-2-(2-oxa-6-azaspiro[3.3]heptan-6-yl)-8-(propan-2-yl)pyrazolo[1,5-a][1,3,5]triazin-4-amine], the IC50 at CDK12/CycK was above 20 µM. Consider `CC(C)c1cnn2c(NCc3nc4ccccc4[nH]3)nc(N3CCCOCC3)nc12` [Example 8, N-[(1H-benzimidazol-2-yl)methyl]-2-(1,4-oxazepan-4-yl)-8-(propan-2-yl)pyrazolo[1,5-a][1,3,5]triazin-4-amine], for which the IC50 on CDK12/CycK was above 19.8 µM. Still for that read-out and setting: to `CC(C)c1cnn2c(NCc3nc4ccccc4[nH]3)nc(N3CCOC[C@@H]3C)nc12` [Example 6, N-[(1H-benzimidazol-2-yl)methyl]-2-[(3S)-3-methylmorpholin-4-yl]-8-(propan-2-yl)pyrazolo[1,5-a][1,3,5]triazin-4-amine] belongs 1.78 µM; to `NCCc1ccc2[nH]c(CNc3nc(N4CCOCC4)nc4c(Br)cnn34)nc2c1.O=CO` [Example 113, formic acid-N-{[5-(2-aminoethyl)-1H-benzimidazol-2-yl]methyl}-8-bromo-2-(morpholin-4-yl)pyrazolo[1,5-a][1,3,5]triazin-4-amine (1/1)], 1.71 µM; to `CC(C)c1cnn2c(NCc3nc4ccccc4[nH]3)nc(N(C)CC(C)(C)O)nc12` [Example 5, 1-{[4-{[(1H-benzimidazol-2-yl)methyl]amino}-8-(propan-2-yl)pyrazolo[1,5-a][1,3,5]triazin-2-yl](methyl)amino}-2-methylpropan-2-ol], 5.17 µM.
